According to the supplement of paper PMC10307832:

How the values were obtained:
Assay in all cases: relative viability (nuclei count vs DMSO), 5 days (fraction); higher = more cells survive
Tivantinib + Palbociclib = compound: O=C1NC(=O)[C@@H](c2cn3c4c(cccc24)CCC3)[C@@H]1c1c[nH]c2ccccc12 [Tivantinib] + CC(=O)c1c(C)c2cnc(Nc3ccc(N4CCNCC4)cn3)nc2n(C2CCCC2)c1=O [Palbociclib] (partner 0.5 µM)
How it was run: (§1)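 Relative viability is defined as nuclei in treated wells over nuclei in vehicle wells. Duplicate plates were run and medians reported. Lung cancer cell lines in 1536-well plates were dosed by pin tool one day after seeding, with one drug or with a fixed anchor-drug dose plus five library-drug doses (not always all listed) in √10 steps, and nuclei were counted after 5 days.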

Tivantinib + Luminespib = compound: O=C1NC(=O)[C@@H](c2cn3c4c(cccc24)CCC3)[C@@H]1c1c[nH]c2ccccc12 [Tivantinib] + CCNC(=O)c1noc(-c2cc(C(C)C)c(O)cc2O)c1-c1ccc(CN2CCOCC2)cc1 [Luminespib] (partner 0.01 µM)
How it was run: as §1

Tivantinib + OSI-027 = compound: O=C1NC(=O)[C@@H](c2cn3c4c(cccc24)CCC3)[C@@H]1c1c[nH]c2ccccc12 [Tivantinib] + COc1cccc2cc(-c3nc([C@H]4CC[C@H](C(=O)O)CC4)n4ncnc(N)c34)[nH]c12 [OSI-027] (partner 0.5 µM)
How it was run: as §1

Crenolanib + Phenformin = compound: CC1(COc2ccc3c(c2)ncn3-c2ccc3cccc(N4CCC(N)CC4)c3n2)COC1 [Crenolanib] + N=C(N)NC(=N)NCCc1ccccc1 [Phenformin] (partner 250 µM)
How it was run: as §1

UMC-11
relative viability (Tivantinib + Palbociclib; first compound 0.01 µM): 0.354 | relative viability (Tivantinib + Palbociclib; first compound 0.03162 µM): 0.332 | relative viability (Tivantinib + Palbociclib; first compound 0.1 µM): 0.314 | relative viability (Tivantinib + Palbociclib; first compound 0.3162 µM): 0.311 | relative viability (Tivantinib + Luminespib; first compound 0.01 µM): 0.927 | relative viability (Tivantinib + Luminespib; first compound 0.03162 µM): 1.02 | relative viability (Tivantinib + Luminespib; first compound 0.1 µM): 0.928 | relative viability (Tivantinib + Luminespib; first compound 0.3162 µM): 1.13 | relative viability (Tivantinib + OSI-027; first compound 0.01 µM): 0.451 | relative viability (Tivantinib + OSI-027; first compound 0.03162 µM): 0.456 | relative viability (Tivantinib + OSI-027; first compound 0.1 µM): 0.465 | relative viability (Tivantinib + OSI-027; first compound 0.3162 µM): 0.521 | relative viability (Crenolanib + Phenformin; first compound 0.01 µM): 0.346 | relative viability (Crenolanib + Phenformin; first compound 0.03162 µM): 0.323 | relative viability (Crenolanib + Phenformin; first compound 0.1 µM): 0.325 | relative viability (Crenolanib + Phenformin; first compound 0.3162 µM): 0.329 | relative viability (Crenolanib + Phenformin; first compound 1 µM): 0.269
